Reference: US11285093B2, “Cosmetic uses of swertiamarin” (LUCAS MEYER COSMETICS, priority 2014, dated 2022)

How the values were obtained:
[1] = tested on: keratinocyte growth factor (KGF); assay: KGF quantification by ELISA in culture medium of human adipocytes; assay type: cell-based; settings: 0.0075% by weight of swertiamarin, 15 hours, normal human adipocytes, vs DMSO control
Experimental: A stock solution at 10% by weight of swertiamarin in DMSO was prepared. This solution was then diluted in the culture medium so as to obtain a final concentration of 0.0075% by weight of swertiamarin.
A culture of normal human adipocytes, obtained from adipocytes sampled by abdominal plastic surgery in a person, was incubated for 15 hours with the culture medium containing swertiamarin. As a negative control, a culture of adipocytes incubated for 15 hours with a culture medium without any swertiamarin but containing the same amount of DMSO was used.
At the end of the incubation, the amount of KGF was quantified in each culture medium by an ELISA test. The statistical significance of the differences between the “control” groups and the “test groups” was evaluated by variance analysis (One way Anova) followed by the Holm Sida test (p*<0.05).

human keratinocytes = assay: Scratch assay on monolayer culture of human keratinocytes; assay type: cell-based; settings: 72 hours
Experimental: Normal keratinocytes surgically sampled in a person were cultivated so as to obtain a monolayer culture of keratinocytes.
When confluence was attained, a lesion (“scratch”) was carried out in each cell culture so as to locally remove an equivalent amount of keratinocytes.
Each culture of keratinocytes was then incubated at 37° C. in a humid atmosphere and in the presence of 5% of CO2, in the presence of an adipocyte culture medium conditioned with swertiamarin (0.0025%; 0.005%; 0.0075% by weight), for 72 hours. The swertiamarin was introduced into the adipocyte culture medium by dilution of a stock solution at 10% in DMSO. The final amount of DMSO in the culture media is 0.15%. […]
The surface corresponding to the “lesion” (i.e. to the area where the keratinocytes were removed) was measured before (t=0) and after incubation for each cell culture from photographs obtained by optical microscopy by using the software package Image J.
The results were expressed as a percentage of re-colonized surface relative to the surface observed at t=0.
The statistical significance of the differences obtained between the groups “DMSO Control” and the groups “TGF-β Controls” was evaluated by using the t-test (***: p<0.001). […]

fibronectin = assay: Fibronectin synthesis by normal human fibroblasts of the dermis (NHDF), ELISA; assay type: cell-based; settings: 24 h or 48 h
Experimental: The applied test was based on the synthesis of fibronectin induced by TGF-β by cells of normal human fibroblasts of the dermis (NHDF) in a monolayer culture. The culture was produced by using as a culture medium DMEM (Eurobio, CMODME70-08) containing 10% of fetal calf serum (Eurobio, CVFSV00-0U), 1% of antibiotics (penicillin/streptomycin, Eurobio, CABPES01-OU) and 1% of L-glutamine (Eurobio, CSTGLUOO-OU), at a temperature of 37° C. under 5% of CO2 and 95% of humidity.
The cells were then sown, in the presence of complete DMEM, in microplates in an amount of 2.5*10^4 cells per well and then incubated at a temperature of 37° C. under 5% of CO2 and 95% of humidity. The culture medium was replaced after 24 hours in order to bring the cells to a quiescent state.
Next, the cells were incubated in the presence of TGF-β or swertiamarin for 24 h or 48 h. The cell supernatants were then collected in order to quantify fibronectin by an ELISA test (BMS028, Ebiosciences). The cell viability level was also determined by the standard MTT test. As a control, cells were incubated under the same conditions but in the absence of TGF-β and of swertiamarin (control).
The results are expressed as a percentage of the amount of fibronectin produced per mL relative to the amount of fibronectin produced by the group of control experiments.

Experimental for human skin explants: 21 skin explants with a diameter of 10 mm were prepared from these samples, among which 12 are skin explants without any adipose tissue (epidermis+dermis explant) and 9 are full skin explants (epidermis+dermis+hypodermis). The explants are maintained alive in a BEM medium at 37° C. in the presence of a humid atmosphere with 5% of CO2. The skin explants were distributed into three groups: • Group 1: a cream containing swertiamarin (SWT) in an amount of 0.025% was applied at days 0, 1, 2, 3, 6 and 7 of the incubation, to the surface of the skin explants by means of a spatula (1 μl in the morning and 1 μl in the evening), • Group 2: a placebo cream (free of swertiamarin) was applied on days 0, 1, 2, 3, 6 and 7 of the incubation, to the surface of the skin explants by means of a spatula (1 μl in the mornings and 1 μl in the evenings), • Group 3: this control group was maintained alive without any treatment (without application of a placebo cream or of cream based on swertiamarin).
On day 9, the skin explants are recovered, chemically bound in a formol solution for 24 hours, dehydrated, impregnated with paraffin and then infiltrated with resin according to the SOP H-53 protocol. Fine cuts are then made in each explant and observed by optical microscopy after staining.

Row | Substance | increase in the average amount of KGF in the culture medium [1] | increase of the surface area re-colonized by the keratinocytes vs DMSO Control (human keratinocytes; adipocyte culture medium conditioned with 0.0025% swertiamarin) | increase of the amount of fibronectin vs control (fibronectin; 0.005% swertiamarin) | morphological alteration of treated skin explants (human skin explants) | cell re-colonization (re-colonized surface) vs DMSO Control (human keratinocytes; TGF-β 10 ng/ml, p<0.001) | production of fibronectin vs control (fibronectin; TGF-β)
1 | Swertiamarin | about 16.4% | +64.6% | more than 171% | do not exhibit any notable morphological alteration | – | –
2 | TGF-β [reference compound] | – | – | – | – | +124.1% | +64%
